target: Alpha-glucosidase MAL62 (Saccharomyces cerevisiae) (UniProt P07265); experiment: Inhibition of baker's yeast alpha-glucosidase using p-nitrophenyl-alpha-D-glucopyranoside as substrate by spectrophotometry
Sequence (P07265 whole entry): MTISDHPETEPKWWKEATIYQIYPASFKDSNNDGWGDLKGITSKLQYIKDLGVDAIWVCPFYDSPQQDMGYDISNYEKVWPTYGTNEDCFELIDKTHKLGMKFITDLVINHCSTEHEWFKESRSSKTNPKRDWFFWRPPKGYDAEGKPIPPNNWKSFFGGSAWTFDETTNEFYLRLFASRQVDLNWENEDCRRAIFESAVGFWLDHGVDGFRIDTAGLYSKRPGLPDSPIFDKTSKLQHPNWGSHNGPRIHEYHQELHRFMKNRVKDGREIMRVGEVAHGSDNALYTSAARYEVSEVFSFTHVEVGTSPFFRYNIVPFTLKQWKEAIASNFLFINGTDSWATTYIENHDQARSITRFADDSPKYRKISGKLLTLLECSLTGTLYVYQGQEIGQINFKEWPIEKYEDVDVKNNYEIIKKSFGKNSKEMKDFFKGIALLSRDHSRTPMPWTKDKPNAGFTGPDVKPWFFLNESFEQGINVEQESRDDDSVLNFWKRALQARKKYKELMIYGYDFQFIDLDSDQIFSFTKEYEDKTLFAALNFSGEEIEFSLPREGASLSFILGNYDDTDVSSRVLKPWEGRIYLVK

Point of comparison: `CC(C)=CCc1cc(C2CCc3ccc(O)cc3O2)c(CC=C(C)C)c(O)c1O` (centres undefined), logIC50 1.08. Against it:
- CC1(C)C=Cc2cc(C(=O)/C=C/c3ccc(O)cc3)c(O)cc2O1 — within 0.2 log units, 1.09
- COc1ccc(/C=C/C(=O)O)cc1 — higher, 1.6
- CC(C)=CCc1c(C2CCc3ccc(O)cc3O2)cc2c(c1O)OC(C)(C)C=C2 (centres undefined) — higher, 1.42
- CC(C)=CCc1cc(-c2oc3cc(O)c(CC=C(C)C)c(O)c3c(=O)c2O)cc(O)c1O — lower, 0.322
- CC1(C)C=Cc2cc(C(=O)/C=C/c3ccc(O)c(O)c3)c(O)cc2O1 — higher, 1.28
- O=c1c(O)c(-c2ccc(O)cc2O)oc2cc(O)cc(O)c12 — higher, 1.6
- CCOC(=O)/C=C/c1ccc(OC)cc1 — higher, 1.7
- Oc1cc(O)c2c(c1)OC(c1ccc(O)c(O)c1)C(O)C2 (centres undefined) — higher, 2.11
- C=C(C)C(CC=C(C)C)Cc1c(O)cc(OC)c2c1OC(c1ccc(O)cc1O)CC2=O (centres undefined) — higher, 1.83
- O=c1c(O)c(-c2cc(O)c(O)c(O)c2)oc2cc(O)cc(O)c12 — lower, 0.699
- Oc1cc(O)c2cc(O)c(-c3ccc(O)c(O)c3)[o+]c2c1 — lower, 0.602
- C=CC(C)(C)c1c(O)cc(O)c2c(=O)c3oc4c5c(c(OCC=C(C)C)cc4c3oc12)OC(C)(C)C=C5 — higher, 1.44
- COc1cc(O)c(C(C)=C(C)C)c2c1C(=O)CC(c1ccc(O)cc1)O2 (centres undefined) — higher, 2.55
- O=C(O)/C=C/c1cccc(O)c1 — higher, 3.1
- O=C(O)c1cc(O)c(O)c(O)c1 — lower, 0.716
- OC[C@H]1OC(OC2=C(c3cc(O)c(O)c(O)c3)Oc3cc(O)cc(O)c3C2)[C@@H](O)[C@@H](O)[C@@H]1O (some centres undefined) — higher, 1.48
- C=CC(C)(C)c1c(O)cc(O)c2c(=O)c3oc4c(CC=C(C)C)c(O)c(OCC=C(C)C)cc4c3oc12 — higher, 1.52
- O=C(O)/C=C/c1ccc(O)cc1 — higher, 2.3
- C=C(C)C(CC=C(C)C)Cc1c(O)cc(O)c2c1OC(c1ccccc1O)CC2=O (centres undefined) — higher, 1.65
- COC(=O)c1cc(O)c(O)c(O)c1 — within 0.2 log units, 1.06
- O=C1C[C@@H](c2ccc(O)cc2)Oc2cc(O)cc(O)c21 — higher, 1.88
- O=c1c(O)c(-c2ccc(O)c(O)c2)oc2cc(O)ccc12 — within 0.2 log units, 1.11
- CC(C)=CCc1cc(C(=O)/C=C/c2ccc(O)cc2)c(O)cc1O — within 0.2 log units, 1.04
- Oc1cc(O)c2c(c1)OC(c1cc(O)c(O)c(O)c1)C(O)C2 (centres undefined) — higher, 1.88
- COc1ccc([C@@H]2CC(=O)c3c(O)cc(O)cc3O2)cc1O — higher, 2.18
- O=c1c(O)c(-c2ccc(O)c(O)c2)oc2cc(O)cc(O)c12 — lower, 0.845
- COc1cccc(/C=C/C(=O)O)c1 — higher, 2.76
- O=C(O)/C=C/c1ccc(Oc2ccccc2)cc1 — higher, 2.64
- C=C(C)C(CC=C(C)C)Cc1c(O)cc(O)c2c1OC(c1ccc(O)cc1O)CC2=O (centres undefined) — higher, 1.57
- OC[C@H]1OC(OC2=C(c3ccc(O)c(O)c3)Oc3cc(O)cc(O)c3C2)[C@@H](O)[C@@H](O)[C@@H]1O (some centres undefined) — higher, 1.3
- O=c1c(O)c(-c2ccc(O)cc2)oc2cc(O)cc(O)c12 — the same, 1.08
- CC(C)=CCc1cc(C(=O)/C=C/c2ccc(O)c(O)c2)c(O)cc1O — lower, 0.724
- C=CC(C)(C)c1cc2c(cc1O)OC(c1cc(O)c(O)c(CC=C(C)C)c1C/C=C\C)CC2 (centres undefined) — within 0.2 log units, 1.02
- C=C(C)C(CC=C(C)C)Cc1c(O)cc(OC)c2c1OC(c1ccc(OC)cc1O)CC2=O (centres undefined) — higher, 2.19
- O=c1cc(-c2ccc(O)c(O)c2)oc2cc(O)cc(O)c12 — higher, 1.32
- O=C(O)/C=C/c1ccc(Cl)cc1 — higher, 2.59
- O=C(OC1Cc2c(O)cc(O)cc2OC1c1cc(O)c(O)c(O)c1)c1cc(O)c(O)c(O)c1 (centres undefined) — lower, 0.301
- O=c1c(-c2ccc(O)cc2)coc2cc(O)ccc12 — within 0.2 log units, 1.15
- O=C(O)/C=C/c1ccc(F)cc1 — higher, 2.43
- O=c1c(-c2ccc(O)cc2)coc2cc(O)cc(O)c12 — lower, 0.845
- C=C(C)C(CCC(C)(C)O)Cc1c(O)cc(OC)c2c1OC(c1ccc(O)cc1O)CC2=O (centres undefined) — higher, 2.25
- C=CC(C)(C)c1c(O)cc(O)c2c(=O)c(O)c(-c3cc(O)c(O)c(CC=C(C)C)c3)oc12 — lower, 0.556
- CC(C)=CCc1cc(C2CCc3ccc(O)cc3O2)cc(O)c1O (centres undefined) — higher, 1.88

Source: ChEMBL document CHEMBL3045086, “Two-dimensional quantitative structureactivity relationship study on polyphenols as inhibitors of -glucosidase” (Med Chem Res, 2012)
